pIC50: −log10 of the molar value. Where only a bound is given, the exact number is not on record here.

In patent publication US11814364B2, “Pyridine N-oxide derivatives useful as factor XIa inhibitors” (Janssen Pharmaceutica NV, priority 2021, dated 2023) one finds IC50 data, which are given here for 52 molecules.

For this test, the target named is human plasma kallikrein (Homo sapiens, UniProt P03952). The test can be described thus: Kallikrein inhibition FLINT assay with quenched AMC peptide substrate Z-Gly-Pro-Arg-AMC (end point EP or kinetic KIN reads). It is filed as biochemical. The conditions noted are these: kinetic reads at 5 min intervals over 30 min; read-out: Kallikrein (KIN) IC50. In a few lines: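 Enzyme and compound were preincubated 30 min before adding 50 μM AMC substrate in pH 7.5 Tris/NaCl/CaCl2/BSA/CHAPS buffer. AMC release was read at 30 min endpoint or every 5 min.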
human plasma kallikrein, sequence (P03952 391-638 limits assumed): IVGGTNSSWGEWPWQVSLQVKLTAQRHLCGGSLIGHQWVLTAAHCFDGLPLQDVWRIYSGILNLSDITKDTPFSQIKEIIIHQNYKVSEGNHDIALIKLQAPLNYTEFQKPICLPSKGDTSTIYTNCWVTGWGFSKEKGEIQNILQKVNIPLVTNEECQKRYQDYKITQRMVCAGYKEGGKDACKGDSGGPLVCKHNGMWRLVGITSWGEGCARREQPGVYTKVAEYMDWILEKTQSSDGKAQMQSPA
human plasma kallikrein, sequence (P03952 20-390 partner limits assumed): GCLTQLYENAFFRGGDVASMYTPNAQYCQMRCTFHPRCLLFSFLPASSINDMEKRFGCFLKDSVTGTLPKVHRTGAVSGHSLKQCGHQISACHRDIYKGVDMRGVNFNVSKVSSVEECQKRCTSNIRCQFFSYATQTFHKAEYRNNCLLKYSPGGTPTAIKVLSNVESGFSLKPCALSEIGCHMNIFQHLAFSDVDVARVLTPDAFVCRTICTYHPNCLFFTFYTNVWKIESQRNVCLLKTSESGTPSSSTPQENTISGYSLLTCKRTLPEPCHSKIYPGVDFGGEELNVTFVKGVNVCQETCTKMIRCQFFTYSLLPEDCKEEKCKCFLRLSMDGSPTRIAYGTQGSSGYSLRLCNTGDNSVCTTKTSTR
As for `CC1CC1CC(c1ccc(-c2c(-n3cnnn3)ccc(Cl)c2F)c[n+]1[O-])n1cc(-c2ncnn2C(F)F)cn1` (stereo not shown) [Example P765], the pIC50 is less than 7.00.
As for `CC1CC1CC(c1ccc(-c2c(-n3cnnn3)ccc(Cl)c2F)c[n+]1[O-])n1cc(-c2ncnn2C(F)F)cn1` (stereo not shown) [Example P766], the pIC50 was less than 7.00.
Take `CC1CC1CC(c1ccc(-c2c(-n3cnnn3)ccc(Cl)c2F)c[n+]1[O-])n1cc(-c2ncnn2C(F)F)cn1` (stereo not shown) [Example P767]: the pIC50 is less than 7.00.
With `CC1CC1C[C@H](c1ccc(-c2c(-n3cnnn3)ccc(Cl)c2F)c[n+]1[O-])n1cc(-c2c(F)nnn2C)cn1` (stereo partly shown) [Example P768] the figure was 7.15.
On to `CC1CC1C[C@@H](c1ccc(-c2c(-n3cnnn3)ccc(Cl)c2F)c[n+]1[O-])n1cc(-c2c(F)nnn2C)cn1` (stereo partly shown) [Example P769], for which the negative-log IC50 (pIC50) is less than 7.00.
With `[O-][n+]1cc(-c2c(-n3cnnn3)ccc(Cl)c2F)ccc1[C@@H](CCOC(F)F)n1cc(-c2cncn2C(F)F)cn1` [Example P771] the figure was 7.79; with `Cn1nncc1-c1cnn([C@H](Cc2ccc(C(F)(F)F)nc2)c2ccc(-c3c(-n4cc(Cl)nn4)ccc(Cl)c3F)c[n+]2[O-])c1` [Example P772], 7.37.
Regarding `Cn1nncc1-c1cnn([C@@H](Cc2ccc(C(F)(F)F)nc2)c2ccc(-c3c(-n4cc(Cl)nn4)ccc(Cl)c3F)c[n+]2[O-])c1` [Example P773], the pIC50 is 5.38.
With `[O-][n+]1cc(-c2c(-n3cnnn3)ccc(Cl)c2F)ccc1[C@@H](Cc1ccc(C(F)(F)F)nc1)n1cc(-c2ccnn2C(F)F)cn1` [Example P777], the pIC50 was 8.19.
In the case of `Cn1nnc(F)c1-c1cnn([C@H](Cc2ccc(C(F)(F)F)nc2)c2ccc(-c3c(-n4cnnn4)ccc(Cl)c3F)c[n+]2[O-])c1` [Example P780], the pIC50 was 7.75.
Take `Cn1ncnc1-c1cnn([C@H](CCOC(F)F)c2ccc(-c3c(-n4cc(C5CC5)nn4)ccc(Cl)c3F)c[n+]2[O-])c1` [Example P781]: the pIC50 was 6.69.
To `[O-][n+]1cc(-c2c(-n3cnnn3)ccc(Cl)c2F)ccc1[C@@H](Cc1ccc(C(F)(F)F)nc1)n1cc(-c2ncnn2C(F)F)cn1` [Example P783] belongs 7.72.
With `[O-][n+]1cc(-c2c(-n3cnnn3)ccc(Cl)c2F)ccc1[C@@H](Cc1ccc(C(F)(F)F)nc1)n1cc(-c2cncn2C(F)F)cn1` [Example P785] the figure was 7.48; with `[O-][n+]1cc(-c2c(-n3cc(Br)nn3)ccc(Cl)c2F)ccc1[C@@H](CCOC(F)F)n1cc(-c2ncnn2C(F)F)cn1` [Example P788], 7.76.
To `N#Cc1cn(-c2ccc(Cl)c(F)c2-c2ccc([C@@H](CCOC(F)F)n3cc(-c4ncnn4C(F)F)cn3)[n+]([O-])c2)nn1` [Example P790] belongs 7.45.
As to `Cn1nncc1-c1cnn([C@H](Cc2ccn(C(F)F)n2)c2ccc(-c3c(-n4cc(C(F)(F)F)nn4)ccc(Cl)c3F)c[n+]2[O-])c1` [Example P792], the negative-log IC50 (pIC50) was 7.12.
For the molecule `Cn1ncnc1-c1cnn([C@H](Cc2ccn(C(F)F)n2)c2ccc(-c3c(-n4cc(Cl)nn4)ccc(Cl)c3F)c[n+]2[O-])c1` [Example P794], the pIC50 is 7.25.
For the molecule `Cn1nnc(F)c1-c1cnn(C(Cc2ccn(C(F)F)n2)c2ccc(-c3c(-n4cc(Cl)nn4)ccc(Cl)c3F)c[n+]2[O-])c1` (stereo not shown) [Example P795], the pIC50 is 7.49.
As to `Cn1nnc(F)c1-c1cnn(C(Cc2ccn(C(F)F)n2)c2ccc(-c3c(-n4cc(Cl)nn4)ccc(Cl)c3F)c[n+]2[O-])c1` (stereo not shown) [Example P797], the pIC50 is 7.62.
For `Cn1ncnc1-c1cnn(C(CCOC(F)F)c2ccc(-c3c(-n4cc(OC(F)F)nn4)ccc(Cl)c3F)c[n+]2[O-])c1` (stereo not shown) [Example P801], the pIC50 was 7.08.
In the case of `CC(C)n1nncc1-c1cnn(C(CCOC(F)F)c2ccc(-c3c(-n4cc(C(F)(F)F)nn4)ccc(Cl)c3F)c[n+]2[O-])c1` (stereo not shown) [Example P803], the pIC50 is roughly 7.03.
With `Cn1ncnc1-c1cnn([C@H](CCOC(F)F)c2ccc(-c3cc(Cl)ccc3-n3cc(C(F)(F)F)nn3)c[n+]2[O-])c1` [Example P805] the figure was 6.59.
Consider `Cn1ncnc1-c1cnn([C@H](Cc2ccn(C(F)F)n2)c2ccc(-c3c(-n4cc(C(F)(F)F)nn4)ccc(Cl)c3F)c[n+]2[O-])c1` [Example P816], for which the pIC50 is 7.06.
Take `N#Cc1cn(-c2ccc(Cl)c(F)c2-c2ccc([C@@H](CCOC(F)F)n3cc(-c4cnnn4C(F)F)cn3)[n+]([O-])c2)nn1` [Example P817]: the negative-log IC50 (pIC50) was 7.63.
As for `[2H]C([2H])(C[C@H](c1ccc(-c2c(-n3cc(C(F)(F)F)nn3)ccc(Cl)c2F)c[n+]1[O-])n1cc(-c2ncnn2C)cn1)OC(F)F` [Example P820], the pIC50 is 7.16.
Take `Cc1ncn(-c2cnn([C@H](CCOC(F)F)c3ccc(-c4c(-n5cc(C(F)(F)F)nn5)ccc(Cl)c4F)c[n+]3[O-])c2)n1` [Example P823]: the pIC50 is 6.25.
Turning to `[2H]C([2H])(C[C@H](c1ccc(-c2c(-n3cc(C(F)(F)F)nn3)ccc(Cl)c2F)c[n+]1[O-])n1cc(-c2ncnn2C)cn1)OC(F)F` [Example P834], the pIC50 was 7.17.
Turning to `O=C(O)c1ccc(-c2cnn(C(CCOC(F)F)c3ccc(-c4c(-n5cc(C(F)(F)F)nn5)ccc(Cl)c4F)c[n+]3[O-])c2)cc1` (stereo not shown) [Example P838], the pIC50 is 7.51.
On to `Cn1ncnc1-c1cnn(C(CCOC(F)(F)F)c2ccc(-c3c(-n4cc(C(F)(F)F)nn4)ccc(Cl)c3F)c[n+]2[O-])c1` (stereo not shown) [Example P840], for which the pIC50 is roughly 6.37.
`NC(=O)c1ccc(-c2cnn(C(CCOC(F)F)c3ccc(-c4c(-n5cc(C(F)(F)F)nn5)ccc(Cl)c4F)c[n+]3[O-])c2)cc1F` (stereo not shown) [Example P844]: the pIC50 is 7.50.
As to `Cn1nnc(F)c1-c1cnn(C(CCOC(F)F)c2ccc(-c3c(-c4cnco4)ccc(Cl)c3F)c[n+]2[O-])c1` (stereo not shown) [Example P846], the pIC50 was 6.62.
Consider `Cn1cnc(Cl)c1-c1cnn([C@H](CC2CC2)c2ccc(-c3c(-n4cnnn4)ccc(Cl)c3F)c[n+]2[O-])c1` [Example P848], for which the pIC50 was 6.73.
For the molecule `[2H]C([2H])(C[C@@H](c1ccc(-c2c(-n3cnnn3)ccc(Cl)c2F)c[n+]1[O-])n1cc(-c2cn(C)nc2Cl)cn1)OC(F)F` [Example P849], the pIC50 is 6.38.
To `[2H]C([2H])(C[C@H](c1ccc(-c2c(-n3cnnn3)ccc(Cl)c2F)c[n+]1[O-])n1cc(-c2cn(C)nc2Cl)cn1)OC(F)F` [Example P850] belongs 8.85; to `Cn1cc(-c2cnn([C@H](Cc3ccn(C(F)F)n3)c3ccc(-c4c(-n5cc(C#N)nn5)ccc(Cl)c4F)c[n+]3[O-])c2)c(Cl)n1` [Example P852], 8.66.
For the molecule `Cn1ccc(C[C@H](c2ccc(-c3c(-n4cc(C(F)(F)F)nn4)ccc(Cl)c3F)c[n+]2[O-])n2cc(-c3ccc(C(=O)O)cc3)cn2)n1` [Example P855], the pIC50 is 8.43.
To `O=C(O)c1ccc(-c2cnn([C@H](CCOC(F)F)c3ccc(-c4c(-n5cc(C(F)(F)F)nn5)ccc(Cl)c4F)c[n+]3[O-])c2)cc1` [Example P858] belongs 7.94.
Turning to `NC(=O)c1ccc(-c2cnn([C@H](CCOC(F)F)c3ccc(-c4cc(Cl)ccc4-n4cc(C(F)(F)F)nn4)c[n+]3[O-])c2)cc1F` [Example P859], the pIC50 is 7.54.
In the case of `NC(=O)c1ccc(-c2cnn([C@H](CCOC(F)F)c3ccc(-c4c(-n5cc(C(F)(F)F)nn5)ccc(Cl)c4F)c[n+]3[O-])c2)cc1F` [Example P860], the pIC50 is 7.99.
As to `Cn1ncnc1-c1cnn(C(CC2CC2)c2ccc(-c3c(-n4cc(C(F)(F)F)nn4)ccc(Cl)c3F)c[n+]2[O-])c1` (stereo not shown) [Example P874], the pIC50 was 7.38.
With `CN(C)C(=O)CC(c1ccc(-c2c(-n3cc(C(F)(F)F)nn3)ccc(Cl)c2F)c[n+]1[O-])n1cc(-c2ccc(C(N)=O)c(F)c2)cn1` (stereo not shown) [Example P884] the figure was 7.21; with `COC(=O)CC(c1ccc(-c2c(-n3cc(C(F)(F)F)nn3)ccc(Cl)c2F)c[n+]1[O-])n1cc(-c2ccc(C(=O)O)c(F)c2)cn1` (stereo not shown) [Example P890], 6.98.
`NC(=O)c1ccc(-c2cnn(C(Cc3ccn(C(F)F)n3)c3ccc(-c4c(-n5cc(C(F)(F)F)nn5)ccc(Cl)c4F)c[n+]3[O-])c2)cc1F` (stereo not shown) [Example P892]: the pIC50 is 8.54.
As to `NC(=O)c1ccc(-c2cnn(C(Cc3ccn(C(F)F)n3)c3ccc(-c4c(-n5cc(Cl)nn5)ccc(Cl)c4F)c[n+]3[O-])c2)cc1F` (stereo not shown) [Example P894], the pIC50 was 8.60.
Consider `O=C(O)c1ccc(-c2cnn(C(CC(=O)N3CCCC3)c3ccc(-c4c(-n5cc(C(F)(F)F)nn5)ccc(Cl)c4F)c[n+]3[O-])c2)cc1F` (stereo not shown) [Example P901], for which the negative logarithm of the IC50 (pIC50) was 6.54.
To `NC(=O)c1ccc(-c2cnn(C(CC(=O)N3CCCC3)c3ccc(-c4c(-n5cc(C(F)(F)F)nn5)ccc(Cl)c4F)c[n+]3[O-])c2)cc1F` (stereo not shown) [Example P902] belongs 7.06; to `O=c1[nH]c(-c2ccc(-c3cnn(C(CCOC(F)F)c4ccc(-c5c(-n6cc(C(F)(F)F)nn6)ccc(Cl)c5F)c[n+]4[O-])c3)cc2)no1` (stereo not shown) [Example P903], 7.94; to `NC(=O)c1ccc(-c2cnn(C(CC3CC3)c3ccc(-c4c(-n5cc(C(F)(F)F)nn5)ccc(Cl)c4F)c[n+]3[O-])c2)s1` (stereo not shown) [Example P904], 6.91.
To `NC(=O)c1ccc(-c2cnn(C(Cc3ncco3)c3ccc(-c4c(-n5cc(C(F)(F)F)nn5)ccc(Cl)c4F)c[n+]3[O-])c2)cc1F` (stereo not shown) [Example P909] belongs 8.26; to `O=C(O)c1ccc(-c2cnn(C(Cc3ncco3)c3ccc(-c4c(-n5cc(C(F)(F)F)nn5)ccc(Cl)c4F)c[n+]3[O-])c2)cc1F` (stereo not shown) [Example P912], 7.93.
For `NC(=O)c1ccc(-c2cnn(C(Cc3ncon3)c3ccc(-c4c(-n5cc(C(F)(F)F)nn5)ccc(Cl)c4F)c[n+]3[O-])c2)cc1F` (stereo not shown) [Example P915], the pIC50 is 7.69.
With `Cn1ncnc1-c1cnn(C(Cc2ncco2)c2ccc(-c3c(-n4cc(C(F)(F)F)nn4)ccc(Cl)c3F)c[n+]2[O-])c1` (stereo not shown) [Example P925], the pIC50 was 6.73.
